SMILES strings stand for the structures.

One may read the IC50 as the concentration that inhibits the measured activity by half.

For one assay, the target named is SARS-CoV-2 3CLpro (Severe acute respiratory syndrome coronavirus 2, UniProt P0DTD1). In words: biochemical.
Another assay addresses MERS-CoV 3CLpro (Middle East respiratory syndrome-related coronavirus, UniProt K9N7C7). In words: biochemical.
In a further assay the target is SARS-CoV 3CLpro (Severe acute respiratory syndrome coronavirus, UniProt P0C6X7). In words: biochemical.
For a further assay, the target named is HCoV-229E 3CLpro (Human coronavirus 229E, UniProt P0C6X1). In words: HCoV-229E 3CLpro inhibition assay (FRET). It is filed as biochemical.
HCoV-229E 3CLpro, sequence (P0C6X1 2966-3267): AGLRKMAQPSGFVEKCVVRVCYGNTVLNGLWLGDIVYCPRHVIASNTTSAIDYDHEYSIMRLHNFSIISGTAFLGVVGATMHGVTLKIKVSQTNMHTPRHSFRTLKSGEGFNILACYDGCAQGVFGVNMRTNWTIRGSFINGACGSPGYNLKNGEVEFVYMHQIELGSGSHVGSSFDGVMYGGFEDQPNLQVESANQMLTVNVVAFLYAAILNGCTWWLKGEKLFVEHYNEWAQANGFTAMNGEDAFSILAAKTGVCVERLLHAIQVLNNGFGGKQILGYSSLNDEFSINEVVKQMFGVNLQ

MERS-CoV 3CLpro, sequence (K9N7C7 3248-3553): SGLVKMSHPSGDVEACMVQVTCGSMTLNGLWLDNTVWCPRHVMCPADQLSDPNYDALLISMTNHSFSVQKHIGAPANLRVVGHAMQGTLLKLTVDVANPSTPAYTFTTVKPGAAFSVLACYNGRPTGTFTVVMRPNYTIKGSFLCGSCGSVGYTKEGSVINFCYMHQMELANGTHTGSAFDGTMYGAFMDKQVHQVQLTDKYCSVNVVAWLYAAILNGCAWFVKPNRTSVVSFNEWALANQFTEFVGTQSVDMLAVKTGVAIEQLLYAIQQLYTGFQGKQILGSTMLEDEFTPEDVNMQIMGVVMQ

For the molecule `CC[C@@H](C)[C@H](NC(=O)C1CC(F)(F)C1)C(=O)N1C[C@H]2[C@@H]([C@H]1C(=O)NN(C[C@@H]1CCNC1=O)C(=O)[C@H](F)Cl)C2(C)C` [Example 114, N-[(1S,2R)-1-[(1R,2S,5S)-2-[[[(2R)-2-chloro-2-fluoro-acetyl]-[[(3S)-2-oxopyrrolidin-3-yl]methyl]amino]carbamoyl]-6,6-dimethyl-3-azabicyclo[3.1.0]hexane-3-carbonyl]-2-methyl-butyl]-3,3-difluoro-cyclobutanecarboxamide], the IC50 against SARS-CoV-2 3CLpro worked out at 17 nM; against MERS-CoV 3CLpro it was 113 nM; against SARS-CoV 3CLpro it was 25 nM; on HCoV-229E 3CLpro it was 29 nM.
The like results for `CC[C@@H](C)[C@H](NC(=O)C1(F)CC1)C(=O)N1C[C@H]2[C@@H]([C@H]1C(=O)NN(C[C@@H]1CCNC1=O)C(=O)[C@H](F)Cl)C2(C)C` [Example 115, N-[(1S,2R)-1-[(1R,2S,5S)-2-[[[(2R)-2-chloro-2-fluoro-acetyl]-[[(3S)-2-oxopyrrolidin-3-yl]methyl]amino]carbamoyl]-6,6-dimethyl-3-azabicyclo[3.1.0]hexane-3-carbonyl]-2-methyl-butyl]-1-fluoro-cyclopropanecarboxamide] were, in that order, 9 nM, 102 nM, 15 nM and 30 nM.
The like results for `CC[C@@H](C)[C@H](NC(=O)[C@@H](C)F)C(=O)N1C[C@H]2[C@@H]([C@H]1C(=O)NN(C[C@@H]1CCNC1=O)C(=O)[C@H](F)Cl)C2(C)C` [Example 116, (2R)—N-[(1S,2R)-1-[(1R,2S,5S)-2-[[[(2R)-2-chloro-2-fluoro-acetyl]-[[(3S)-2-oxopyrrolidin-3-yl]methyl]amino]carbamoyl]-6,6-dimethyl-3-azabicyclo[3.1.0]hexane-3-carbonyl]-2-methyl-butyl]-2-fluoro-propanamide] were, in that order, 14 nM, 98 nM, 18 nM and 36 nM.
The like results for `CC[C@@H](C)[C@H](NC(=O)[C@H](C)F)C(=O)N1C[C@H]2[C@@H]([C@H]1C(=O)NN(C[C@@H]1CCNC1=O)C(=O)[C@H](F)Cl)C2(C)C` [Example 117, (2S)—N-[(1S,2R)-1-[(1R,2S,5S)-2-[[[(2R)-2-chloro-2-fluoro-acetyl]-[[(3S)-2-oxopyrrolidin-3-yl]methyl]amino]carbamoyl]-6,6-dimethyl-3-azabicyclo[3.1.0]hexane-3-carbonyl]-2-methyl-butyl]-2-fluoro-propanamide] were, in that order, 11 nM, 86 nM, 11 nM and 25 nM.
As to `CC[C@@H](C)[C@H](NC(=O)C1CC1)C(=O)N1C[C@H]2[C@@H]([C@H]1C(=O)NN(C[C@@H]1CCNC1=O)C(=O)[C@H](F)Cl)C2(C)C` [Example 118, N-[(1S,2R)-1-[(1R,2S,5S)-2-[[[(2R)-2-chloro-2-fluoro-acetyl]-[[(3S)-2-oxopyrrolidin-3-yl]methyl]amino]carbamoyl]-6,6-dimethyl-3-azabicyclo[3.1.0]hexane-3-carbonyl]-2-methyl-butyl]cyclopropanecarboxamide], the IC50 against SARS-CoV-2 3CLpro is 13 nM; against MERS-CoV 3CLpro it was 109 nM; at SARS-CoV 3CLpro, 18 nM; on HCoV-229E 3CLpro it was 27 nM.
For the molecule `CC[C@@H](C)[C@H](NC(=O)C1(F)CCC1)C(=O)N1C[C@H]2[C@@H]([C@H]1C(=O)NN(C[C@@H]1CCNC1=O)C(=O)[C@H](F)Cl)C2(C)C` [Example 119, N-[(1S,2R)-1-[(1R,2S,5S)-2-[[[(2R)-2-chloro-2-fluoro-acetyl]-[[(3S)-2-oxopyrrolidin-3-yl]methyl]amino]carbamoyl]-6,6-dimethyl-3-azabicyclo[3.1.0]hexane-3-carbonyl]-2-methyl-butyl]-1-fluoro-cyclobutanecarboxamide], the IC50 against SARS-CoV-2 3CLpro was determined as 15 nM; on MERS-CoV 3CLpro it was 206 nM; against SARS-CoV 3CLpro, 20 nM; on HCoV-229E 3CLpro it was 56 nM.
The like results for `CC[C@@H](C)[C@H](NC(=O)C(F)F)C(=O)N1C[C@H]2[C@@H]([C@H]1C(=O)NN(C[C@@H]1CCNC1=O)C(=O)[C@@H](F)Cl)C2(C)C` [Example 120, N-[(1S,2R)-1-[(1R,2S,5S)-2-[[[(2S)-2-chloro-2-fluoro-acetyl]-[[(3S)-2-oxopyrrolidin-3-yl]methyl]amino]carbamoyl]-6,6-dimethyl-3-azabicyclo[3.1.0]hexane-3-carbonyl]-2-methyl-butyl]-2,2-difluoro-acetamide] were, in that order, 19 nM, 98 nM, 34 nM and 38 nM.
For `CC[C@@H](C)[C@H](NC(=O)C1(F)CC1)C(=O)N1C[C@H]2[C@@H]([C@H]1C(=O)NN(C[C@@H]1CCNC1=O)C(=O)[C@@H](F)Cl)C2(C)C` [Example 121, N-[(1S,2R)-1-[(1R,2S,5S)-2-[[[(2S)-2-chloro-2-fluoro-acetyl]-[[(3S)-2-oxopyrrolidin-3-yl]methyl]amino]carbamoyl]-6,6-dimethyl-3-azabicyclo[3.1.0]hexane-3-carbonyl]-2-methyl-butyl]-1-fluoro-cyclopropanecarboxamide], in that order: 26 nM, 131 nM, 50 nM and 43 nM.
As for `CC[C@@H](C)[C@H](NC(=O)[C@H](C)F)C(=O)N1C[C@H]2[C@@H]([C@H]1C(=O)NN(C[C@@H]1CCNC1=O)C(=O)[C@@H](F)Cl)C2(C)C` [Example 122, (2S)—N-[(1S,2R)-1-[(1R,2S,5S)-2-[[[(2S)-2-chloro-2-fluoro-acetyl]-[[(3S)-2-oxopyrrolidin-3-yl]methyl]amino]carbamoyl]-6,6-dimethyl-3-azabicyclo[3.1.0]hexane-3-carbonyl]-2-methyl-butyl]-2-fluoro-propanamide], the IC50 was 26 nM against SARS-CoV-2 3CLpro, 146 nM at MERS-CoV 3CLpro, 36 nM against SARS-CoV 3CLpro and 46 nM on HCoV-229E 3CLpro.
For `CC[C@@H](C)[C@H](NC(=O)[C@@H](C)F)C(=O)N1C[C@H]2[C@@H]([C@H]1C(=O)NN(C[C@@H]1CCNC1=O)C(=O)[C@@H](F)Cl)C2(C)C` [Example 123, (2R)—N-[(1S,2R)-1-[(1R,2S,5S)-2-[[[(2S)-2-chloro-2-fluoro-acetyl]-[[(3S)-2-oxopyrrolidin-3-yl]methyl]amino]carbamoyl]-6,6-dimethyl-3-azabicyclo[3.1.0]hexane-3-carbonyl]-2-methyl-butyl]-2-fluoro-propanamide], in that order: 37 nM, 146 nM, 62 nM and 51 nM.
The like results for `CC[C@H](C)[C@H](NC(=O)C1CC(F)(F)C1)C(=O)N1C[C@@H]2CCC[C@@H]2[C@H]1C(=O)NN(C[C@@H]1CCNC1=O)C(=O)[C@H](F)Cl` [Example 126, N-[(1S,2S)-1-[(3S,3aS,6aR)-3-[[[(2R)-2-chloro-2-fluoro-acetyl]-[[(3S)-2-oxopyrrolidin-3-yl]methyl]amino]carbamoyl]-3,3a,4,5,6,6a-hexahydro-1H-cyclopenta[c]pyrrole-2-carbonyl]-2-methyl-butyl]-3,3-difluoro-cyclobutanecarboxamide] were, in that order, 10 nM, 68 nM, 11 nM and 28 nM.

(Values after US20250059171A1 (Hoffmann-La Roche Inc., priority 2021, published 2025).)
